In US20050112573A1, “Method of detecting toxic substance” (priority 2001, published 2005):

Test system: yeast genes (level of expressed mRNA)
Assay: DNA chip analysis of expressed mRNA of yeast genes after 2 h culture with a toxic chemical substance
Type: cell-based, Saccharomyces cerevisiae S288C
Procedure: Yeast (Saccharomyces cerevtisiae S288C (α SUC2mal mel gap2 CUP1)) were cultured at 25° C. on YPD medium (yeast extract 1%, polypepton 2%, glucose 2%). One of toxic chemical substances was added to the cell at logarithmic growth phase, and the cell was further cultured for two hours. Cell was cultured without any chemical substance in the same condition, and was used as control. Concentrations of the chemical substances were defined to inhibit the growth of the yeast but not lead to death.
After the completion of cultivation, the culture was centrifuged to collect the cells. To the cells, sodium acetate buffer (50 mM sodium acetate, 10 mM EDTA, 1% SDS) was added, and the mixture was shaken at 65° C. for five minutes, followed by returning to room temperature, and obtaining the supernatant, which procedure was repeated two times. To the supernatant, ½ amount of a solution of phenol/chloroform was added, and the mixture was centrifuged to give a supernatant, which was added with an equal amount of chloroform, and the mixture was centrifuged to give a supernatant. To the supernatant, an equal amount of isopropanol containing 0.3 M sodium acetate was added, and the mixture was allowed to stand at room temperature for 30 minutes, after which the mixture was centrifuged to give a sediment of the whole RNAs. Seventy % ethanol was added to the sediment, and the mixture was again centrifuged to give a sediment, which was then dried and dissolved in water. mRNA was isolated from the whole RNAs as followings. In view of the fact that a poly A chain is attached to the 3′ terminus of mRNA, a polynucleotide having a poly T structure which was immobilized on the surface of latex beads was used to trap the mRNA, and then the mRNA was washed and eluted with spine column (Oligotex-dT30<Super>mRNA Purification Kit, Takara). Reverse transcription of the mRNA was conducted with a reverse transcriptase (Super Script II Reverse Transcriptase; catalogue No. 18064-014, GibcoBRL) using fluorescence-labeled nucleotides to give cDNAs that were introduced with Cy3-dUTP or Cy5-dUTP during the reverse transcription.
The labeled cDNAs were dissolved in TE buffer (10 mM Tris-HCl/1 mM EDTA, pH8.0), and the solution was dropped on the DNA chip containing the whole genes of yeast (DNA Chip Research Inc. Japan) so that the cDNAs were hybridized on the DNA chip at 65° C. for over 12 hours. The fluoresces intensity of the DNA chip was read with a scanner, and the ratio relative to the fluorescence intensity resulting from the absence of chemical substance was estimated as the following, which is shown in Tables 1 to 9: [formula]
In the Tables, “Intensity” indicated in the rightmost column is a value of the level of expressed mRNA of each gene in control cells as divided by the average level of the expressions of the whole genes.

Substance: Na2As [(1)]
- The level of expressed mRNA in the presence of chemical substance/ (yeast gene YNL074C, ratio to control without chemical substance, 2 h culture): 0.9
- The level of expressed mRNA in the presence of chemical substance/ (yeast gene YNL092W, ratio to control without chemical substance, 2 h culture): 1.3
- The level of expressed mRNA in the presence of chemical substance/The level of expressed mRNA in the absence of chemical substance (yeast gene YNL093W): 2.1
- The level of expressed mRNA in the presence of chemical substance/ (yeast gene YNL115C, ratio to control without chemical substance, 2 h culture): 0.7
- The level of expressed mRNA in the presence of chemical substance/ (yeast gene YNL156C, ratio to control without chemical substance, 2 h culture): 1.1
- The level of expressed mRNA in the presence of chemical substance/ (yeast gene YNL234W, ratio to control without chemical substance, 2 h culture): 1.1
- The level of expressed mRNA in the presence of chemical substance/ (yeast gene YNL281W, ratio to control without chemical): 1.0
- The level of expressed mRNA in the presence of chemical substance/ (yeast gene YNL305C, ratio to control without chemical): 0.9
- The level of expressed mRNA in the presence of chemical substance/The level of expressed mRNA in the absence of chemical substance (yeast gene YNL333W): 1.0
- The level of expressed mRNA in the presence of chemical substance/The level of expressed mRNA in the absence of chemical substance (yeast gene YNR010W): 1.3
- The level of expressed mRNA in the presence of chemical substance/ (yeast gene YNR068C, ratio to control without chemical): 1.2
- The level of expressed mRNA in the presence of chemical substance/The level of expressed mRNA in the absence of chemical substance (yeast gene YNR069C): 1.5
- The level of expressed mRNA in the presence of chemical substance/in the absence of chemical substance (yeast gene YNR072W): 1.1
- The level of expressed mRNA in the presence of chemical substance/The level of expressed mRNA in the absence of chemical substance (yeast gene YOL013C): 0.9
- The level of expressed mRNA in the presence of chemical substance/ (yeast gene YOL032W, ratio to control without chemical): 1.3
- The level of expressed mRNA in the presence of chemical substance/ (yeast gene YOL036W, ratio to control without chemical): 0.8
- The level of expressed mRNA in the presence of chemical substance/ (yeast gene YOL047C, ratio to control without chemical): 1.4
- The level of expressed mRNA in the presence of chemical substance/ (yeast gene YOL071W, ratio to control without chemical): 1.3
- The level of expressed mRNA in the presence of chemical substance/ (yeast gene YOL082W, ratio to control without chemical): 1.0
- The level of expressed mRNA in the presence of chemical substance/ (yeast gene YOL083W, ratio to control without chemical): 1.1
- The level of expressed mRNA in the presence of chemical substance/in the absence of chemical substance (yeast gene YOL096C): 1.1
- The level of expressed mRNA in the presence of chemical substance/ (yeast gene YOL117W, ratio to control without chemical): 1.0
- The level of expressed mRNA in the presence of chemical substance/ (yeast gene YOL131W, ratio to control without chemical): 1.0
- The level of expressed mRNA in the presence of chemical substance/ (yeast gene YOL150C, ratio to control without chemical substance, 2 h culture): 4.1
- The level of expressed mRNA in the presence of chemical substance/ (yeast gene YOL162W, ratio to control without chemical): 2.0
- The level of expressed mRNA in the presence of chemical substance/The level of expressed mRNA in the absence of chemical substance (yeast gene YOL164W): 0.9
- The level of expressed mRNA in the presence of chemical substance/ (yeast gene YOR019W, ratio to control without chemical): 2.9
- The level of expressed mRNA in the presence of chemical substance/The level of expressed mRNA in the absence of chemical substance (yeast gene YOR036W): 1.8
- The level of expressed mRNA in the presence of chemical substance/The level of expressed mRNA in the absence of chemical substance (yeast gene YOR117W): 0.8
- The level of expressed mRNA in the presence of chemical substance/The level of expressed mRNA in the absence of chemical substance (yeast gene YOR124C): 0.6
- The level of expressed mRNA in the presence of chemical substance/The level of expressed mRNA in the absence of chemical substance (yeast gene YOR132W): 0.9
- The level of expressed mRNA in the presence of chemical substance/The level of expressed mRNA in the absence of chemical substance (yeast gene YOR157C): 1.0
- The level of expressed mRNA in the presence of chemical substance/in the absence of chemical substance (yeast gene YOR180C): 0.8
- The level of expressed mRNA in the presence of chemical substance/The level of expressed mRNA in the absence of chemical substance (yeast gene YOR181W): 1.0
- The level of expressed mRNA in the presence of chemical substance/The level of expressed mRNA in the absence of chemical substance (yeast gene YOR185C): 1.1
- The level of expressed mRNA in the presence of chemical substance/ (yeast gene YOR197W, ratio to control without chemical): 0.8
- The level of expressed mRNA in the presence of chemical substance/The level of expressed mRNA in the absence of chemical substance (yeast gene YOR198C): 1.0
- The level of expressed mRNA in the presence of chemical substance/The level of expressed mRNA in the absence of chemical substance (yeast gene YOR259C): 0.8
- The level of expressed mRNA in the presence of chemical substance/The level of expressed mRNA in the absence of chemical substance (yeast gene YOR261C): 1.0
- The level of expressed mRNA in the presence of chemical substance/The level of expressed mRNA in the absence of chemical substance (yeast gene YOR288C): 0.9
- The level of expressed mRNA in the presence of chemical substance/The level of expressed mRNA in the absence of chemical substance (yeast gene YOR355W): 0.7
- The level of expressed mRNA in the presence of chemical substance/in the absence of chemical substance (yeast gene YOR363C): 0.8
- The level of expressed mRNA in the presence of chemical substance/The level of expressed mRNA in the absence of chemical substance (yeast gene YOR383C): 0.9
- The level of expressed mRNA in the presence of chemical substance/ (yeast gene YPL087W, ratio to control without chemical): 1.0
- The level of expressed mRNA in the presence of chemical substance/The level of expressed mRNA in the absence of chemical substance (yeast gene YPL089C): 1.2
- The level of expressed mRNA in the presence of chemical substance/The level of expressed mRNA in the absence of chemical substance (yeast gene YPL109C): 1.1
- The level of expressed mRNA in the presence of chemical substance/The level of expressed mRNA in the absence of chemical substance (yeast gene YPL149W): 1.5
- The level of expressed mRNA in the presence of chemical substance/The level of expressed mRNA in the absence of chemical substance (yeast gene YPL154C): 0.7
- The level of expressed mRNA in the presence of chemical substance/ (yeast gene YPL196W, ratio to control without chemical): 1.3
- The level of expressed mRNA in the presence of chemical substance/ (yeast gene YPL206C, ratio to control without chemical): 1.0
- The level of expressed mRNA in the presence of chemical substance/ (yeast gene YPL222W, ratio to control without chemical): 0.9
- The level of expressed mRNA in the presence of chemical substance/ (yeast gene YPR023C, ratio to control without chemical): 1.2
- The level of expressed mRNA in the presence of chemical substance/The level of expressed mRNA in the absence of chemical substance (yeast gene YPR103W): 0.7
- The level of expressed mRNA in the presence of chemical substance/The level of expressed mRNA in the absence of chemical substance (yeast gene YPR108W): 0.8
- The level of expressed mRNA in the presence of chemical substance/ (yeast gene YPR151C, ratio to control without chemical): 2.3
- The level of expressed mRNA in the presence of chemical substance/in the absence of chemical substance (yeast gene YPR184W): 1.2
